Here are results for three compounds from article PMC6943714, “Rigorous Computational and Experimental Investigations on MDM2/MDMX-Targeted Linear and Macrocyclic Peptides” (Molecules, 2019).

SMILES strings stand for the structures. Where a SMILES comes first, the peptide text is derived from it. Bridges are numbered along the chain shown (N, C = ends). [ ]: non-standard residue; d: D form. R8 = C=CCCCCCC[C@@](C)(N)C(=O)O; Cba = N[C@@H](CC1CCC1)C(=O)O; S5 = C=CCCC[C@](C)(N)C(=O)O

One experiment concerns the target T1, MDMX (Homo sapiens, UniProt O15151).
T1 sequence (O15151 1-490): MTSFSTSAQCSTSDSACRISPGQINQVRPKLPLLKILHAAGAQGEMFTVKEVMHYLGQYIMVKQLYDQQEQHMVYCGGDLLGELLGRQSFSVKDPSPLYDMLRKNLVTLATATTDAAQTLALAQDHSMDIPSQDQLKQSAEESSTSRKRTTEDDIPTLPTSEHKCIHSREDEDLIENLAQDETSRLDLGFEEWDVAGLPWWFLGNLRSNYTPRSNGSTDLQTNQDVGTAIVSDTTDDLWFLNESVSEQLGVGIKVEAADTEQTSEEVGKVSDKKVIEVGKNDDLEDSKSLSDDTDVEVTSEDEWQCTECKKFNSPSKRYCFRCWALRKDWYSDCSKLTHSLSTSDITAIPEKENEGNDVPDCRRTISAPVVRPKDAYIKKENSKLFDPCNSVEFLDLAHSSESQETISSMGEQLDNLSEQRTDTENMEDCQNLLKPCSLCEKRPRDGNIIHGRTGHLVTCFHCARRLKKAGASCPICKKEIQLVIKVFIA
The experiment can be described thus: Experimental MDMX binding (Table 4). The source says:
Table 4 Prospective Testing Data. | column: Experimental MDMX / Kd (nM); Experimental MDMX / ΔΔG (kcal)

In another experiment the target is T2, MDM2 (1-125) (Homo sapiens, UniProt Q00987).
T2 construct: Purified MDM2 (1-125) protein was titrated against
T2 sequence (Q00987 1-125): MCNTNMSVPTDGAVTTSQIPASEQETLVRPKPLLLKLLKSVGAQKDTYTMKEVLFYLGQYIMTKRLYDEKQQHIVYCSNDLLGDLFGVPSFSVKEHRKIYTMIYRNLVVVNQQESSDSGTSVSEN
As to the kind of experiment: Mdm2 competitive fluorescence anisotropy assay. The class given is binding. The settings on record: read-out: Experimental MDM2 Kd. On the procedure: Mdm2 Competitive Fluorescence Anisotropy Assay and Kd Determination Purified MDM2 (1-125) protein was titrated against 50 nM carboxyfluorescein (FAM)-labeled 12/1 peptide (FAM-[…]-NH2). […] (4) r=r0+(rb−r0)((Kd+[L]t+[P]t)−(Kd+[L]t+[P]t)^2−4[L]t[P]t/2[L]t)
[P] is the protein concentration (MDM2), [L] is the labeled peptide concentration, r is the anisotropy measured, ro is the anisotropy of the free peptide, rb is the anisotropy of the MDM2–FAM-labeled peptide complex, Kd is the dissociation constant, [L]t is the total FAM-labeled peptide concentration, and [P]t is the total MDM2 concentration.
Apparent Kd values were determined for a variety of molecules via competitive fluorescence anisotropy experiments. Titrations were carried out with the concentration of MDM2 held constant at 250 nM and the labeled peptide at 50 nM. The competing molecules were then titrated against the complex of the FAM-labeled peptide and protein. Apparent Kd values were determined by fitting the experimental data to the equations shown below: [58, 59]. […]
[L]st and [L]t denote labeled ligand and total unlabeled ligand input concentrations, respectively. […] Kd1 is the apparent Kd for the labeled peptide used in the respective experiment, which has been experimentally determined as described in the previous paragraph. […] Readings were carried out with an Envision Multilabel Reader (PerkinElmer). […]
For orientation: Polarisation of emitted light reports the rotation of a fluorescent probe.

On MDMX, `CC(=O)N[C@@H](CC(C)C)C(=O)N[C@H](C(=O)N[C@@H](Cc1ccccc1)C(=O)N[C@]1(C)CCCCCCC=CCCC[C@@](C)(C(=O)N[C@@H](CO)C(=O)N[C@@H](C)C(=O)N[C@@H](C)C(N)=O)NC(=O)[C@H](CC2CCC2)NC(=O)[C@H](CC(C)C)NC(=O)[C@H](CCC(N)=O)NC(=O)[C@H](Cc2c[nH]c3ccccc23)NC(=O)[C@H](Cc2ccc(O)cc2)NC(=O)[C@H](CCC(=O)O)NC1=O)[C@@H](C)O` [WT] yielded a Kd of 12.5 nM.

Regarding `CC(=O)N[C@@H](CC(C)C)C(=O)N[C@H](C(=O)N[C@@H](Cc1ccccc1)C(=O)N[C@]1(C)CCCCCCC=CCCC[C@@](C)(C(=O)N[C@@H](CO)C(=O)N[C@@H](C)C(=O)N[C@@H](C)C(N)=O)NC(=O)[C@H](CC2CCC2)NC(=O)[C@H](CC(C)C)NC(=O)[C@H](CCC(N)=O)NC(=O)[C@H](Cc2c[nH]c3ccccc23)NC(=O)[C@H](C)NC(=O)[C@H](CCC(=O)O)NC1=O)[C@@H](C)O` [Y6A] (Ac-LTF[R8]EAWQL[Cba][S5]SAA-NH2; staple 4-11), the Kd on MDM2 (1-125) is 51.5 nM; on MDMX, 130 nM.

As to `CC(=O)N[C@@H](CC(C)C)C(=O)N[C@H](C(=O)N[C@@H](Cc1ccccc1)C(=O)N[C@]1(C)CCCCCCC=CCCC[C@@](C)(C(=O)N[C@@H](CO)C(=O)N[C@@H](C)C(=O)N[C@@H](C)C(N)=O)NC(=O)[C@H](CC2CCC2)NC(=O)[C@H](CC(C)C)NC(=O)[C@H](CCC(N)=O)NC(=O)[C@H](Cc2c[nH]c3ccccc23)NC(=O)[C@@H](Cc2ccc(O)cc2)NC(=O)[C@H](CCC(=O)O)NC1=O)[C@@H](C)O` [Y6dY], the Kd on MDM2 (1-125) came out at 365 nM; at MDMX it was 921 nM.

For orientation: Kd means the equilibrium constant for the complex coming apart.
